What was measured:
Assay type in all cases: cell-based
endothelial cells (H5V) = assay: Induction of in vitro angiogenesis: tube formation on Growth Factor Reduced Matrigel; details: serum free medium, 24h at 37°C, number of branching points, Figures 3 and 4
Description: Coronary endothelial cells (H5V cells) were maintained in DMEM supplemented with 10% heat inactivated Fetal Calf Serum (FCS), glutamine (1mM) under 5% CO2 at 37°C.
In order to evaluate the potential angiogenic activity of the PKR1 agonists, the test of Growth Factor Reduced Matrigel (GFR Matrigel) 24 well plate was performed. Matrigel leads to the differentiation of many cell types and induces the formation and organization of endothelial cells into capillary tubules. Twenty-four-well culture plates were coated with Matrigel and endothelial cells (H5V) were trypsin-harvested and seeded onto the coated plates at 10^5 cells per well in the serum free assay medium with PKR1 agonists, IS1 and prokineticin-2, and incubated at 37°C for 24h. Tube formation as two dimensional branched structures were observed using an inverted phase contrast microscope (Zeiss), and the number of branching points were quantified in per well from each sample. Each experiment was repeated at least three times. Images were captured at a magnification of X10 with a digital microscope camera system (Urayama K et al., 2007).

PKR1 [1] = molecular target: T1, PKR1 (Homo sapiens, UniProt Q8TCW9); assay: Activation of PKR1 signalling pathway: intracellular calcium measured with Fluo 4-AM in CHO-K1 cells infected with adenovirus carrying PKR1 cDNA; details: CHO-K1 cells expressing PKR1, Fluo 4-AM fluorescence; Figure 5
T1 construct: expressed in transfected cells; host or cells: CHO-K1 cells, transfected with Lipofectamine2000
Description: CHO-K1 (Chinese Hamster Ovary) cells were infected with a adenovirus carrying PKR1 cDNA. Cells were then stimulated, 48h after infection, with or without IS1 agonists, at 37°C. Calcium imaging was conducted essentially as previously described (Horinouchi et al., 2007) In brief, Intracellular free calcium [Ca^2+]i was measured with the fluorescent Ca^2+ indicator dye Fluo 4-AM, the membrane-permeant acetoxymethyl ester form of Fluo 4 (Invitrogen). Changes in [Ca^2+]i were determined from variations in the fluorescence intensity of Fluo 4-AM. Briefly, trypsinized CHO-K1-PKR1 cells were seeded onto glass bottom culture dishes (MatTek, MA, USA) for 24 h. […] The fluorescence in the cells was excited at a wavelength of 488 nm and a series of images (total exposure time: 300 s) were acquired at 0.5s intervals at emission wavelength 518 nm. Data are presented as the fluorescence intensity of 3 randomly chosen cells within a randomly selected 40 × field. To evaluate the effect of IS1 compound on [Ca^2+]i in CHO-K-PKR1, the maximum change in fluorescence intensity upon addition of IS1 was measured and normalized to the baseline fluorescence obtained before IS 1 addition.

PKR1 [2] = molecular target: T1, PKR1; assay: PKR1 internalization in CHO-K1 cells transfected with GFP-PKR1, by confocal microscopy; details: Figure 6
Description: The capacity of agonist compounds to induce internalization of PKR1 was assessed. Therefore, CHO-K1 cells transfected with a plasmid encoding GFP-PKR1 (Green Fluorescent Protein-PKR1), in the presence of Lipofectamine2000 (Invitrogen), were used. Cells were stimulated, 48h after transfection, with or without agonist compound, at 37°C. GFP is a fluorescent protein fusion (26.9 kDa) which has a major excitation peak at a wavelength of 396 nm and a minor one at 472 nm. Its emission peak is at 504 nm which is in the lower green portion of the visible spectrum. Fluorescence allowed tracking the localization of PKR1 after stimulation by the agonist (membrane or subcellular). Cells were seeded in glass-bottom coated with polyL-lysine and receptor studies were performed in the presence of various PKR1-ligands. Samples were observed under a Leica confocal microscope (SP2 AOBS MP) with objective 63× at 37°C. Images were automatically recorded during 20 min, with increasing time intervals to avoid bleaching effects because of repetitive scanning. Reconstituted videos contained 42 images and lasted 2 second.

T1 sequence (Q8TCW9 whole entry): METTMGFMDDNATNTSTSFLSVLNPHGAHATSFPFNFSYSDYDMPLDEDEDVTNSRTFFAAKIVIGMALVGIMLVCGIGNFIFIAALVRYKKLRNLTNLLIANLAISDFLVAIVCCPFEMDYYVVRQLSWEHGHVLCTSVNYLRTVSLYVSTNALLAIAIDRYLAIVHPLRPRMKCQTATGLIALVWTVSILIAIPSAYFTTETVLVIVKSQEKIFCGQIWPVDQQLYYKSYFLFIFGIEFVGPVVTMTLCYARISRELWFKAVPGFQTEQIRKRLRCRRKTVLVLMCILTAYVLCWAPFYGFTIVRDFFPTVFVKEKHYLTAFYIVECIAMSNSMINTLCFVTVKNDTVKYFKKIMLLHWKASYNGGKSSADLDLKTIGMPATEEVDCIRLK

Q: Which results are given for `O=C(NCc1cccnc1)C(=Cc1ccco1)NC(=O)c1ccccc1` [IS1]?
A: in vitro angiogenesis (tube-like formation of the endothelial cells on Matrigel) (endothelial cells (H5V)): Induction of in vitro angiogenesis; activation of the PKR1 signalling pathway (intracellular calcium release) (PKR1 [1]): able to activate the PKR1 signalling pathway; PKR1 internalization (PKR1 [2]; CHO cells GFP-PKR1, 48h after transfection, 37°C): induces its internalization; specificity of interaction with PKR1 (PKR1 [2]; CHO cells GFP-PKR1): specifically interacts with PKR1
